Measured values reported in patent publication US20030113312A1, “Skin barrier function and cohesion through enhanced stratum corneum acidification” (The Regents of the University of California, priority 2001, published 2003).
Where “and” joins values, the source holds several entries; their conditions need not be identical. Equal values may be shown once.

Columns and labels:
Murine skin = conditions: 4 mg/mL topical in propylene glycol:ethanol; cited from earlier work
[1] = system: hairless mice skin (stratum corneum); experiment: Stratum corneum integrity: TEWL after sequential tape stripping; format: in vivo, mouse
Method: The mice were anesthetized with chloral hydrate (Morton Grove Pharmaceuticals, Morton Grove, Ill., USA). […] After 15 minutes, barrier function was determined by measurement of transepidermal water loss (TEWL) with an electrolytic water analyzer (MEECO®, Warrington, Pa.). […] Individually tested sites were covered with Hilltop Chambers (HtC, nominal volume 200 mL), which were reapplied following each indvidual measurement.
The stratum corneum was removed by several strippings with adhesive tape (Tesa, Beiersdorf, Germany) inducing an increase in TEWL rates above baseline (from 0.2 to approximately 7-9 g/m^2/h). Two sites were prepared on each animal, and TEWL and surface pH were measured at 0, 2, 5 and 24 hrs following the stripping and the applications of inhibitors.

[2] = system: hairless mice skin (stratum corneum); experiment: Skin surface pH after topical treatment or buffer exposure; format: in vivo, mouse; conditions: for pH of the stratum corneum: BPB alone, three days
Method: Animals: Male hairless mice (Skh1/Hr, Charles River Laboratories, Wilmington, Mass.), 8-12 weeks old, were fed Purina mouse diet and water ad libitum. […] Functional experiments were performed on animals aged 6-10 weeks.
The mice were anesthetized with chloral hydrate (Morton Grove Pharmaceuticals, Morton Grove, Ill., USA). After 3 hours immersion at 37° C., the mice were removed, and the remaining buffer was gently blotted off. After 15 minutes, barrier function was determined by measurement of transepidermal water loss (TEWL) with an electrolytic water analyzer (MEECO®, Warrington, Pa.). Surface pH was measured with a flat, glass surface electrode from Mettler-Toledo (Giessen, Germany), attached to a pH meter (Skin pH Meter PH 900, Courage & Khazaka, Cologne, Germany). Individually tested sites were covered with Hilltop Chambers (HtC, nominal volume 200 mL), which were reapplied following each indvidual measurement.

[3] = system: desmosomes in the lower stratum corneum; experiment: Desmosome density by microscopy and desmoglein-1 immunostaining; format: in vivo, mouse; conditions: for density of desmosomes in lower stratum corneum and at SC-SG interface: inhibitor-treated murine skin vs controls
Description: Ultrastructural methods: Freshly obtained biopsies from mouse skin were fixed directly in modified Karnovsky's fixative, postfixed with reduced osmium tetroxide (OS04) and then imbedded in an Epon-epoxy mixture. For visualization of lipid-enriched, lamellar bilayer structures, some samples were post fixed in ruthenium tetroxide (RuO4). Sections were cut on a Reichert Ultracut E microtome, counterstained with uranyl acetate and lead citrate, and viewed in a Zeiss 10 CR electron microscope, operated at 60 kV.
Immunofluorescence Staining: Hairless mouse skin was excised with a 6 mm punch biopsy, and the subcutaneous fat was removed. Tissue sections were incubated for 1 hour in blocking buffer (1% bovine serum albumin, 0.1% cold water fish gelatin in phosphate buffered saline (PBS)), and were then incubated for 1 hour further at room temperature with 1:500 dilution of polyclonal rabbit anti-mouse desmoglein 1 antibody (gift of Dr. John Stanley, University of Pennsylvania) diluted in blocking buffer. The tissue was then washed with blocking buffer and incubated one hour at room temperature with floroscien-labeled, isothiocyanate-conjugated, goat anti-rabbit IgG antibody (DAKO, Carpinteria, Calif., USA), diluted in blocking buffer. Either preincubation of DSG 1 antibody with DSG 1-recombinant protein (gift of Dr. Masayuki Amagai, Keio University, Tokyo, Japan), or omission of the DSG 1 primary antibody eliminated specific staining. Tissue sections then were washed with PBS and coverslipped before visualization under confocal microscope (Leica TCS SP, Heidlberg, Germany) using FITC at an excitation wavelength of 494 nm and an emisson wavelength of 518 nm.
To further investigate the changes in stratum corneum cohesion that are brought about by application of secretory phospholipase A2 inhibitors, BPB and MJ33 treated samples of murine skin and the corresponding untreated controls, were assessed by immunohistochemical staining and confocal microscopy. […]

[4] = system: hairless mice skin (stratum corneum); experiment: Barrier function by transepidermal water loss (TEWL); format: in vivo, mouse
Method: Animals: Male hairless mice (Skh1/Hr, Charles River Laboratories, Wilmington, Mass.), 8-12 weeks old, were fed Purina mouse diet and water ad libitum. […] Each litter was genotyped separately. Functional experiments were performed on animals aged 6-10 weeks.
The mice were anesthetized with chloral hydrate (Morton Grove Pharmaceuticals, Morton Grove, Ill., USA). After 3 hours immersion at 37° C., the mice were removed, and the remaining buffer was gently blotted off. After 15 minutes, barrier function was determined by measurement of transepidermal water loss (TEWL) with an electrolytic water analyzer (MEECO®, Warrington, Pa.). Surface pH was measured with a flat, glass surface electrode from Mettler-Toledo (Giessen, Germany), attached to a pH meter (Skin pH Meter PH 900, Courage & Khazaka, Cologne, Germany). Individually tested sites were covered with Hilltop Chambers (HtC, nominal volume […]), which were reapplied following each indvidual measurement.

[5] = system: hairless mice skin (stratum corneum); experiment: Stratum corneum cohesion: protein removed per D-Squame stripping; format: in vivo, mouse; conditions: after three days of inhibitor treatment alone; vehicle about 5
Method: Before stripping the stratum corneum, the skin surface was cleaned with a single ethanol wipe. D-Squame tapes then were placed sequentially to the test areas for about 3 sec each, removed with forceps, and stored in glass scintillation vials at 5° C.
The protein content per stripping was determined with the Bio-Rad protein assay kit. […] Each tape was incubated with 1 M NaOH for 1 hour at 37° C. in an incubator shaker at 80 rpm, and neutralized thereafter with 1 mL of 1 M HCl in the scintillation vials. Subsequently, 0.2 mL of this solution was incubated in 0.6 ml distilled water plus 0.2 mL of the Bio-Rad protein dye for 5 minutes in boroscillate tubes. […] An empty D-Squame tape, as well as distilled water incubated with Bio-Rad dye, served as negative controls. The amount of calculated protein was then normalized to skin surface area (μg/cm^2).

Compound	toxicity of the dose employed to Murine skin (Murine skin)	TEWL rate after three consecutive tape strips ([1]; day 3 of inhibitor treatment alone, vehicle closer to 40)	stratum corneum surface pH ([2]; MJ33 4 mg/mL topical, vs vehicle 5.60+/-0.05, p=0.0023)	density of desmosomes in lower stratum corneum and at SC-SG interface [3]	fold increase in TEWL rates ([4]; by day three, vs vehicle)	TEWL rate ([4]; repeated applications, day three, vs vehicle 2.97+/-0.16, p<0.001)	TEWL rate after fifth tape strip ([1]; after three days of inhibitor treatment alone, vehicle close to 25)	TEWL rate after second tape strip ([1]; after three days of inhibitor treatment alone, vehicle closer to 5)	protein removed, first D-Squame strip [5]	pH of the stratum corneum ([2]; comparator of the linoleic acid co-application)	pH of the stratum corneum ([2]; comparator of the palmitic acid co-application)	pH of the stratum corneum ([2]; comparator of the stearic acid co-application)	pH of the skin ([2]; hairless mice, 4 mg/mL topical twice daily, after one day, starting value about pH 5.6)	final average pH of treated sites ([2]; hairless mice, 4 mg/mL topical twice daily, day 3, vehicle close to pH 5.4)	density of DSG1 positive clusters ([3]; laser confocal microscopy, treated vs vehicle stratum corneum)	TEWL rate ([4]; 4 mg/mL topical twice daily, day 2, vehicle closer to 2.5)	TEWL rate ([4]; 4 mg/mL topical twice daily, day three, vehicle near 3)
CCCCCCCCCCCCCCCCOCC(COCC(F)(F)F)OP(=O)(O)OC (stereo not shown) [MJ33, One-hexadecyl-3-triflouroethylglycero-sn-2-phosphomethanol]	non-toxic	~75 g/m^2/h	5.87+/−0.06	dramatic reduction	2-3 fold	5.19+/−0.81											
O=C(CBr)c1ccc(Br)cc1 [BPB, bromphenacyl bromide]	non-toxic			dramatic reduction			~90 g/m^2/h and 80-100 g/m^2/h	~20 g/m^2/h	about 20 μg/cm^2	6.28+/−0.1	5.92+/−0.05	6.17+/−0.08	~6.0 pH	~6.4 pH	decline dramatically	~6 g/m^2/h	~11 g/m^2/h
